# Laboratory results: ChEMBL document CHEMBL3785078 (Eur J Clin Pharmacol, 1981)
# Experiments:
# [1] = Drug excretion in human assessed as unchanged parent compound level; settings: in vivo
# [2] = Total body clearance in iv dosed patient (7 patients) with renal insufficiency; settings: human, in vivo
# [3] = clinical; settings: human, in vivo, po, 350 mg/kg
# Description: Terminal half life in patient (7 patients) with renal insufficiency at 350 mg/kg, po
# [4] = Apparent volume of distribution in beta-phase in iv dosed patient (7 patients) with renal insufficiency; settings: human, in vivo
# [5] = Apparent volume of distribution in beta-phase iv dosed patient with normal renal function; settings: human, in vivo
# [6] = Apparent first order elimination rate constant from the central compartment in iv dosed patient with normal renal function; settings: human, in vivo
# [7] = Apparent first order elimination rate constant from the central compartment in iv dosed patient (7 patients) with renal insufficiency; settings: human, in vivo
# [8] = Disposition rate constant in iv dosed patient (7 patients) with renal insufficiency; settings: human, in vivo
# [9] = Terminal half life in iv dosed patient (7 patients) with renal insufficiency; settings: human, in vivo
# [10] = clinical; settings: human, in vivo, po, 50 mg/kg
# Description: Terminal half life in patient (7 patients) with renal insufficiency at 50 mg/kg, po
# [11] = Apparent volume of distribution at steady state in iv dosed patient (7 patients) with renal insufficiency; settings: human, in vivo
# [12] = Half life in patient with normal renal function assessed as unchanged compound level using 14C labeled compound measured over 72 hrs; settings: human, in vivo
# [13] = Total body clearance in iv dosed patient with normal renal function; settings: human, in vivo
# [14] = Half life in patient (5 patients) with severe renal insufficiency assessed as unchanged compound level using 14C labeled compound measured over 72 hrs; settings: human, in vivo
# [15] = Terminal half life in iv dosed patient with normal renal function; settings: human, in vivo
# [16] = Apparent volume of distribution at central compartment in iv dosed patient (7 patients) with renal insufficiency; settings: human, in vivo
# [17] = Disposition rate constant in patient (7 patients) with renal insufficiency at 50 mg/kg, po; settings: human, in vivo
# [18] = Disposition rate constant in patient (7 patients) with renal insufficiency at 350 mg/kg, po; settings: human, in vivo
# [19] = Apparent volume of distribution at steady state in iv dosed patient with normal renal function; settings: human, in vivo
smiles,measurement,setting,value
O=P1(N(CCCl)CCCl)NCCCO1 (centres undefined) [CYCLOPHOSPHAMIDE ANHYDROUS],dose excreted,[1],< 15%
same,clearance,[2],0.813 mL/min/kg
same,half-life,[3],5.21 h
same,Vd,[4],0.72 L/kg
same,Vd,[5],0.68 L/kg
same,k el,[6],4.86e-05 s⁻¹
same,k el,[7],3.36e-05 s⁻¹
same,k el,[8],1.94e-05 s⁻¹
same,half-life,[9],10.2 h
same,half-life,[10],13.7 h
same,Vd,[11],0.58 L/kg
same,half-life at 72 h,[12],6.9 h
same,clearance,[13],0.977 mL/min/kg
same,half-life at 72 h,[14],14 h
same,half-life,[15],8.21 h
same,Vd,[16],0.41 L/kg
same,k el,[17],1.42e-05 s⁻¹
same,k el,[18],1.92e-05 s⁻¹
same,Vd,[19],0.73 L/kg
